According to publication PMC3328449, “Inhibition of Diacylglycerol–Sensitive TRPC Channels by Synthetic and Natural Steroids” (PLoS ONE, 2012):

Target: T1, mTRPC4ß (Mus musculus, UniProt Q9QUQ5)
T1 construct: expressed in transfected cells
T1 sequence (Q9QUQ5 1-890 isoform Q9QUQ5-2): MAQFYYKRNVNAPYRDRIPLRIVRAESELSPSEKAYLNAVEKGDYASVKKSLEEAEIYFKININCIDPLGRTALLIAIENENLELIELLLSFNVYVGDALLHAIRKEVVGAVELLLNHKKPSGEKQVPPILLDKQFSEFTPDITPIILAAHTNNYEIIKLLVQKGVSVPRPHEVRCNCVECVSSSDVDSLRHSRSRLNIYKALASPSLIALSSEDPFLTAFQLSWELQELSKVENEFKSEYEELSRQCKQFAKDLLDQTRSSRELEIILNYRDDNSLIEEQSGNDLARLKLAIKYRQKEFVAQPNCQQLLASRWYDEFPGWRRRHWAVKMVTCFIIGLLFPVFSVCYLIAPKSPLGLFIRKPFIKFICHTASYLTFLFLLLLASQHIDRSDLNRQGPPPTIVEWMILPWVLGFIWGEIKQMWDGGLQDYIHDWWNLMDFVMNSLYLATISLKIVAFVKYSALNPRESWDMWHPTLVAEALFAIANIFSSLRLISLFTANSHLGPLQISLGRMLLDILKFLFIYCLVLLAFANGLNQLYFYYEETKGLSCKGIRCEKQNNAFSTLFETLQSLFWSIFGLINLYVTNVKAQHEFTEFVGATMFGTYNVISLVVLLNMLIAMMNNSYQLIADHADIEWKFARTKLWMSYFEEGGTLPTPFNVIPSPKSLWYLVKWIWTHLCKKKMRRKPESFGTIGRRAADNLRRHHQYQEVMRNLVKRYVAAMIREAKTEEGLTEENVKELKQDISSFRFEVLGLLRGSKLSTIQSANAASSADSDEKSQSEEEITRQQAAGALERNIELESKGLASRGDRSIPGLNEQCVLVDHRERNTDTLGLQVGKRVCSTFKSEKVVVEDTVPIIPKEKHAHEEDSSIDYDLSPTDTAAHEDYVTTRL
Assay: Trypsin-induced Ca2+ entry, fluo-4 fluorometric imaging plate reader, TRPC4 HEK-FITR cells
Format: cell-based
Procedure: Cells were grown at 37°C in a humidified atmosphere (5% or 7% CO2) under standard cell culture conditions. Stable human embryonic kidney (HEK) cell lines expressing recombinant mTRPC4ß (GenBank accession number AAC05178); mTRPC5 (GenBank accession number NM_009428) or hTRPC6 (GenBank accession number AF080394) under the control of a tetracycline-inducible promoter were generated using the Flp-In T-Rex (FITR) system (Invitrogen, Karlsruhe, Germany). […]
Cells grown to an almost confluent monolayer on black poly-D-lysine coated 96-well plates (Greiner, Frickenhausen, Germany) were washed with standard extracellular solution (140 mM NaCl, 1 mM MgCl2, 5.4 mM KCl, 2 mM CaCl2, 10 mM HEPES, 10 mM glucose, pH 7.35) and stained (30 min, room temperature) with dye solution (2 µM fluo-4 AM, 0.02% pluronic F127, 0.1% bovine serum albumin in standard extracellular solution). […] Fluo-4 fluorescence was excited at 488 nm with an argon laser and measured using a fluorometric imaging plate reader (Molecular Devices, Sunnyvale, USA). […]
TRPC4- and TRPC5-mediated Ca^2+ influx was stimulated by application of trypsin that activates endogenous Gq-coupled protease activated receptors in HEK cells. […] Compound effects were then calculated from the area under the curve and normalized to the Ca^2+ influx into trypsin-stimulated, non-compound-treated cells. […]

IC50 (TRPC4 HEK-FITR cells, fluo-4, 200 nM trypsin, read-out: IC50, inhibition of trypsin-induced Ca2+ entry via TRPC4): 6.2 µM
Hill slope n, inhibition of TRPC4-mediated Ca2+ entry (fit to Hill model): 1.15
Structure (SMILES): CC(=O)[C@H]1CC[C@H]2[C@@H]3CCC4=CC(=O)CC[C@]4(C)[C@H]3CC[C@]12C [progesterone]
